Laboratory results taken from US20260274836A1, “NOVEL HEPATOSELECTIVE POLYADENYLATING POLYMERASES INHIBITORS AND THEIR METHOD OF USE” (Baruch S. Blumberg Institute, priority 2022, published 2026).
Like-named read-outs stand apart in the source and are kept apart here.

Experiments:
[1] = system: 18f-NLuc reporter virus (HM175/18f HAV); test: Antiviral activity against human hepatitis A virus, 18f-NLuc reporter virus in Huh-7 cells; format: cell-based, Human Hepatitis A Virus (Hepatovirus A)
Experimental: Assay for Antiviral Activity Against Human Hepatitis A Virus (Hepatovirus A).
(§1) Assays for the anti-HAV activity of the hepatoselective DHQ compounds were carried out in Huh-7 human hepatoma cells using the 18f-NLuc reporter virus, which expresses nanoluciferase (NLuc) from sequence inserted into the polyprotein coding region of the HM175/18f HAV genome between the VP1pX and 2B coding sequences (Yamane et al., 2019). The method was modified minimally from that described by Misumi et al. for iminosugar compounds (Misumi et al., 2021). Cells (approximately […]) were plated in wells of a 96-well plate with Dulbecco's modified Eagle medium (DMEM) and 10% fetal bovine serum. The cells were inoculated 24 hrs later with 18f-NLuc virus (approximately 10^6-10^7 genome equivalents) in medium containing increasing concentrations of the compounds of interest. The cells were re-incubated for 48 hrs at 37° C. in a 5% CO2 environment, then lysed in 1× passive lysis buffer (Promega) for 15 min at room temperature. Cell lysates were transferred to an opaque white 96-well plate (Corning, 3912) and NLuc assay carried out using the NLuc GLOW Assay kit (Nanolight Technology). Luminescence was measured using a Biotek Synergy II multi-mode plate reader (BioTek Instruments). The percent inhibition of replication was calculated by determining the reduction in NLuc activity from that expressed by infected cells incubated in parallel in the absence of compound, and 50% inhibitory endpoints estimated by fitting the data to a four parameter variable slope logistic curve using Prism 9 for Mac OS software (GraphPad). Cell toxicity of the compounds was assessed using the WST-1 Cell Proliferation Reagent (Sigma-Aldrich) at the end of the treatment period in parallel cultures of uninfected cells, with WST-1 reagent added to cultures for 1 hr prior to harvest and O.D. reading.
as §1, with “Additional exemplary compounds of the present invention are evaluated for anti-HAV activity in accordance with certain assays described hereinabove. As discussed above, assays” for “Assays”, “10^6-107” for “10^6-10^7”

OATP1B3 = target: T1, OATP1B3 (Homo sapiens, UniProt Q9NPD5); test: OATP1B3 transporter substrate uptake in OATP1B3-HEK293 cells; format: in vitro ADME; conditions: for Uptake Ratio (−/+Inhibitor): OATP1B3-HEK293 cells, inhibitor Rifamycin SV
T1 construct: expressed in transfected cells; host or cells: HEK293
T1 sequence (Q9NPD5 1-702): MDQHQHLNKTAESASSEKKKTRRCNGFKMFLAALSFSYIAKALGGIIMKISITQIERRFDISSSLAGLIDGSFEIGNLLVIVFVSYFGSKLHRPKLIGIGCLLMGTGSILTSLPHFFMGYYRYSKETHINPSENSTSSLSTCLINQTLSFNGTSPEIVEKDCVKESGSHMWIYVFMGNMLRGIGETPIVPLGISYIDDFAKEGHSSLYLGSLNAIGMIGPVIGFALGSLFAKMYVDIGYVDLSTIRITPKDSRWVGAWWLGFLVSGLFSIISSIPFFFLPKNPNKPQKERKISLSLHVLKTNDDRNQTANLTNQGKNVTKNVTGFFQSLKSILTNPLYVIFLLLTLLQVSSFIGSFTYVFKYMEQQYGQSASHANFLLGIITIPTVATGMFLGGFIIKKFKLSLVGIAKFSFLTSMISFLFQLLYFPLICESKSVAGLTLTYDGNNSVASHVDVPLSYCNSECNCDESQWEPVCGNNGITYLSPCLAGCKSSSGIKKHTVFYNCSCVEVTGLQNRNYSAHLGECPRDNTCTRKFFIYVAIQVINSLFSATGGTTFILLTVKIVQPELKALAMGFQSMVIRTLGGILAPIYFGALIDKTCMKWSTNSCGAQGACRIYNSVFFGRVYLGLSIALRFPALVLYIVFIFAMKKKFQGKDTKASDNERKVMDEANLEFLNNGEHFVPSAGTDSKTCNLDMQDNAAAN
Experimental: (§2) Protocol for identification of compounds that are substrates of transporters OATPIBI and OATPIB3. Transfected HEK293 and vector control HEK293 cells were cultured in 24-well poly-D-lysine or collagen-coated tissue culture plates ([…]) for 2 and 10 minutes respectively in transport buffer (HBSSg, pH 7.4, pre-warmed to 37° C.). At a defined time point, the uptake experiments were stopped by removing dosing solution followed by two washes of ice-cold HBSSg buffer. The cells were lysed for 2 minutes with 75% ACN containing an appropriate internal standard (when available). Lysis buffer were chilled to −20° C., and the plate was kept on ice during lysis. The cell lysate was transferred into a 96-well plate for sample analysis with LC-MS/MS analysis to determine concentration of test compound in cell lysate. The uptake of test compounds was normalized by total cell protein using the BCA Protein Assay Kit following the manufacturer's protocol. The inhibitor Rifamycin SV was used to block OATP1B1 and OATP1B3 transporter activity in order to determine uptake ratios.

OATP1B1 = target: T2, OATP1B1 (Homo sapiens, UniProt Q9Y6L6); test: OATP1B1 transporter substrate uptake in OATP1B1-HEK293 cells; format: in vitro ADME; conditions: for Uptake Ratio (−/+Inhibitor): OATP1B1-HEK293 cells, inhibitor Rifamycin SV
T2 construct: expressed in transfected cells; host or cells: HEK293
T2 sequence (Q9Y6L6 1-691): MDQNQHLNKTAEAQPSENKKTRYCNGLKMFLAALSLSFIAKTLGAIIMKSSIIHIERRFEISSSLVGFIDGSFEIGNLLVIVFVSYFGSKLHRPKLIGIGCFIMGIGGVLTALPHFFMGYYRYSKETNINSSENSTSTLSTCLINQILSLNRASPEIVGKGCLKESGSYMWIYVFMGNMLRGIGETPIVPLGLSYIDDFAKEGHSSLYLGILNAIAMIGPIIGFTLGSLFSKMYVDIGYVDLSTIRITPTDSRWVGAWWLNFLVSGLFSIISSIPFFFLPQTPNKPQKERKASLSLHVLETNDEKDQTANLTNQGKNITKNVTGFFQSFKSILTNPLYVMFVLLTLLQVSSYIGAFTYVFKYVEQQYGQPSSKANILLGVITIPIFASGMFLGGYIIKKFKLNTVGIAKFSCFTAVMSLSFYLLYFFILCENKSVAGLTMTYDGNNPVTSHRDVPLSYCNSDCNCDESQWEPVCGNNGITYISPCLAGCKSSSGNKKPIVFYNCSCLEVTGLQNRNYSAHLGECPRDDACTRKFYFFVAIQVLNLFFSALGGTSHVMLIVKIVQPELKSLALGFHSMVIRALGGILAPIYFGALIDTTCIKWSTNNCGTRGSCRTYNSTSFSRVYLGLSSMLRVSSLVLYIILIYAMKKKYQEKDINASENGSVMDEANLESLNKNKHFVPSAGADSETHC
Experimental: as §2

in vitro = format: cell-based; conditions: human
Experimental: Assays for the anti-HAV activity of the hepatoselective DHQ compounds were carried out in Huh-7 human hepatoma cells using the 18f-NLuc reporter virus, which expresses nanoluciferase (NLuc) from sequence inserted into the polyprotein coding region of the HM175/18f HAV genome between the VP1pX and 2B coding sequences (Yamane et al., 2019). The method was modified minimally from that described by Misumi et al. for iminosugar compounds (Misumi et al., 2021). Cells (approximately […]) were plated in wells of a 96-well plate with Dulbecco's modified Eagle medium (DMEM) and 10% fetal bovine serum. The cells were inoculated 24 hrs later with 18f-NLuc virus (approximately 10^6-10^7 genome equivalents) in medium containing increasing concentrations of the compounds of interest. […] Luminescence was measured using a Biotek Synergy II multi-mode plate reader (BioTek Instruments). […] Cell toxicity of the compounds was assessed using the WST-1 Cell Proliferation Reagent (Sigma-Aldrich) at the end of the treatment period in parallel cultures of uninfected cells, with WST-1 reagent added to cultures for 1 hr prior to harvest and O.D. reading.
Additional exemplary compounds of the present invention are evaluated for anti-HAV activity in accordance with certain assays described hereinabove. […] Luminescence was measured using a Biotek Synergy II multi-mode plate reader (BioTek Instruments). […]

[2] = target: interaction of PAPD5 with ZCCHC14 (Homo sapiens, UniProt Q8NDF8); test: Interaction of PAPD5 with ZCCHC14
interaction of PAPD5 with ZCCHC14, sequence (Q8NDF8 whole entry): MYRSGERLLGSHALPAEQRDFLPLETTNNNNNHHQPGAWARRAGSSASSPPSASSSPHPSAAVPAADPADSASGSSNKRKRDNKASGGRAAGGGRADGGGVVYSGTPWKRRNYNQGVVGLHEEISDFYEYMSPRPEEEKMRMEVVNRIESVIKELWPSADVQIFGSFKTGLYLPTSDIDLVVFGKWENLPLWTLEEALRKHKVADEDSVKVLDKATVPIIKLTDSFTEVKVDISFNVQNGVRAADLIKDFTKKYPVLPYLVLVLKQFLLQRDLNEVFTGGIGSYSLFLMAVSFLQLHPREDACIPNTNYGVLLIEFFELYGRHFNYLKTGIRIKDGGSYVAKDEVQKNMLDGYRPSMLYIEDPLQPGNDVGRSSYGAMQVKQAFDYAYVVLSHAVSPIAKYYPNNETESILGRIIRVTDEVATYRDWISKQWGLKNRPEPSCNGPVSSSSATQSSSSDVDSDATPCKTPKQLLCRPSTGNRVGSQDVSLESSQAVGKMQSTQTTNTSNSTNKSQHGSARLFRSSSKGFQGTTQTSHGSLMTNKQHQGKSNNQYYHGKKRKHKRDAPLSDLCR

HAV [3] = conditions: Ifnar1^−/− mice, cited from earlier work
HAV [4] = conditions: cited from earlier work
[5] = Hepatovirus A, Huh-7, 48 h, read-out: EC50 HAV (nM), Huh-7 cells, 18f-NLuc virus, 48 hrs
[6] = read-out: EC50 HAV, Huh-7 cells, 18f-NLuc virus, 48 hrs

**Q.** With `COc1cc2c(cc1OCCCCCCC(=O)O)C[C@@H](C(C)C)n1cc(C(=O)O)c(=O)cc1-2` [Example G] as the compound, how does the EC50 [1, 5] read?
**A.** 278 nM

**Q.** For `COc1cc2c(cc1OCCCc1ccc(C(=O)O)cc1)C[C@@H](C(C)C)n1cc(C(=O)O)c(=O)cc1-2` [Example E], which EC50 [1, 5] is on record?
**A.** 382 nM

**Q.** Which “Uptake Ratio (−/+Inhibitor)” value (OATP1B3; test concentration 10 μM) does the source give for `C[C@]12CC[C@@H]3c4ccc(O)cc4CC[C@H]3[C@@H]1CC[C@@H]2O[C@@H]1O[C@H](C(=O)O)[C@@H](O)[C@H](O)[C@H]1O` [Estradiol 17-β Glucuronide] here?
**A.** 86.15

**Q.** And the “Uptake Ratio (Transporter(−Inhibitor)/Mock(−Inhibitor))” value (OATP1B3; OATP1B3-HEK293 vs mock HEK293, test concentration 10 μM)?
**A.** 98.86

**Q.** What about the “Uptake Ratio (−/+Inhibitor)” value (OATP1B1; test concentration 10 μM) of the same compound?
**A.** 81.84

**Q.** And the “Uptake Ratio (Transporter(−Inhibitor)/Mock(−Inhibitor))” value (OATP1B1; OATP1B1-HEK293 vs mock HEK293, test concentration 10 μM)?
**A.** 48.70

**Q.** Which EC50 [1, 6] does the source give for `COc1cc2c(cc1OCCCCCCCCC(=O)O)C[C@@H](C(C)C)n1cc(C(=O)O)c(=O)cc1-2` [Example H] here?
**A.** 18.2 nM

**Q.** With `COc1cc2c(cc1OCCCCCCCCC(=O)O)C[C@@H](C(C)C)n1cc(C(=O)O)c(=O)cc1-2` [Example 8, (S)-9-((8-carboxyoctyl)oxy)-6-isopropyl-10-methoxy-2-oxo-6,7-dihydro-2H-pyrido[2,1-a]isoquinoline-3-carboxylic acid] as the compound, how does the CC50 at 48 h (in vitro) read?
**A.** > 10000 nM

**Q.** And the EC50 ([1]; Hepatovirus A, Huh-7, 48 h, Huh-7 cells, 18f-NLuc virus, 48 hrs)?
**A.** 18.2 nM

**Q.** Which EC50 [1, 6] does the source give for `COc1cc2c(cc1OCCCCCCCCC(=O)O)C[C@@H](C(C)C)n1cc(C(=O)O)c(=O)cc1-2` [Example A] here?
**A.** 67 nM

**Q.** Which EC50 [1, 5] does the source give for `COc1cc2c(cc1OCCCCCC(C)(C)C(=O)O)C[C@@H](C(C)C)n1cc(C(=O)O)c(=O)cc1-2` [Example F] here?
**A.** 25 nM

**Q.** For `COCCCOc1cc2c(cc1OC)-c1cc(=O)c(C(=O)O)cn1[C@H](C(C)C)C2` [DHQ-1], which “Interaction of PAPD5 with ZCCHC14” value [2] is on record?
**A.** prevents the interaction of PAPD5 with ZCCHC14

**Q.** What about the Prevention of infection (HAV [3]; given shortly after intravenous virus challenge) of the same compound?
**A.** completely prevented infection

**Q.** What about the “HAV replication in mice” value (HAV [3]; oral treatment) of the same compound?
**A.** blocked HAV replication

**Q.** And the “Uptake Ratio (−/+Inhibitor)” value (OATP1B3; test concentration 1 μM)?
**A.** 0.42

**Q.** And the “Uptake Ratio (Transporter(−Inhibitor)/Mock(−Inhibitor))” value (OATP1B3; OATP1B3-HEK293 vs mock HEK293, test concentration 1 μM)?
**A.** 0.56

**Q.** What about the “Uptake Ratio (−/+Inhibitor)” value (OATP1B1; test concentration 1 μM) of the same compound?
**A.** 0.38

**Q.** What about the “Uptake Ratio (Transporter(−Inhibitor)/Mock(−Inhibitor))” value (OATP1B1; OATP1B1-HEK293 vs mock HEK293, test concentration 1 μM) of the same compound?
**A.** 0.71

**Q.** And the “HAV replication in cultured cells” value (HAV [4])?
**A.** inhibit HAV replication

**Q.** For `COc1cc2c(cc1OCCc1cccc(C(=O)O)c1)C[C@@H](C(C)C)n1cc(C(=O)O)c(=O)cc1-2` [Example C], which EC50 [1, 5] is on record?
**A.** 325 nM

**Q.** For `COc1cc2c(cc1OCCc1ccc(C(=O)O)cc1)C[C@@H](C(C)C)n1cc(C(=O)O)c(=O)cc1-2` [Example D], which EC50 [1, 5] is on record?
**A.** 245 nM

**Q.** Which EC50 [1, 6] does the source give for `COc1cc2c(cc1OCCCCCCCCC(=O)O)C[C@@H](C(C)C)n1cc(C(=O)O)c(=O)cc1-2` [Example B] here?
**A.** 63 nM
